ChEMBL document CHEMBL3758123, “Synthesis, biological evaluation and molecular modeling study of some new thiazolodiazepine analogs as CNS active agents” (Bioorg Med Chem Lett, 2016)
Activity calls are given as the source filed them. The calls are words filed in the database; no cut-off is given here.

Legend:
Mus musculus [1] = experiment: Anticonvulsant activity in Swiss albino mouse assessed as picrotoxin-induced convulsions frequency time at 200 mg/kg, ip administered for 30 mins followed by picrotoxin challenge; format: functional
Mus musculus [2] = experiment: Anticonvulsant activity in Swiss albino mouse assessed as pentylenetetrazole induced onset of convulsion time at 200 mg/kg, ip administered for 20 mins followed by pentylenetetrazole challenge; format: functional
Mus musculus [3] = experiment: Anticonvulsant activity in Swiss albino mouse assessed as picrotoxin-induced onset of convulsion time at 200 mg/kg, ip administered for 30 mins followed by picrotoxin challenge; format: functional
Mus musculus [4] = experiment: Anticonvulsant activity in Swiss albino mouse assessed as pentylenetetrazole induced convulsions frequency time at 200 mg/kg, ip administered for 20 mins followed by pentylenetetrazole challenge; format: functional
Mus musculus [5] = experiment: Toxicity in picrotoxin-induced Swiss albino mouse convulsion model assessed as time of death at 200 mg/kg, ip administered for 30 mins followed by picrotoxin challenge; format: organism-based; details: in vivo, 0.5 h
Mus musculus [6] = experiment: Hypnotic activity in mouse assessed as decrease in locomotors activity at 200 mg/kg, ip after 20 mins; format: functional, organism-based
Mus musculus [7] = experiment: Toxicity in pentylenetetrazole induced Swiss albino mouse convulsion model assessed as time of death at 200 mg/kg, ip administered for 20 mins followed by pentylenetetrazole challenge; format: organism-based; details: in vivo
[8] = Therapeutic index, ratio of LD50 for ip dosed Swiss albino mouse to ED50 for protection against pentylenetetrazole induced seizure in ip dosed Swiss albino mouse; format: organism-based; details: in vivo, read-out: Ratio LD50/ED50
Mus musculus [9] = experiment: Toxicity in pentylenetetrazole induced Swiss albino mouse convulsion model assessed as time of death at 100 mg/kg, ip administered for 20 mins followed by pentylenetetrazole challenge; format: organism-based; details: in vivo
Mus musculus [10] = experiment: Protective index, ratio of TD50 for Swiss albino mouse assessed as motor performance to ED50 for protection against maximal electroshock-induced seizure in ip dosed Swiss albino mouse; format: functional
Mus musculus [11] = experiment: Anticonvulsant activity in Swiss albino mouse assessed as protection against pentylenetetrazole-induced seizure at 200 mg/kg, ip administered for 20 mins followed by pentylenetetrazole challenge; format: functional
Mus musculus [12] = experiment: Anticonvulsant activity in ip dosed Swiss albino mouse assessed as protection against maximal electroshock-induced seizures administered for 30 mins followed by electric shock treatment; format: functional; details: 0.5 h
Mus musculus [13] = experiment: Anticonvulsant activity in Swiss albino mouse assessed as pentylenetetrazole induced onset of convulsion time at 100 mg/kg, ip administered for 20 mins followed by pentylenetetrazole challenge; format: functional
Mus musculus [14] = experiment: Hypnotic activity in mouse assessed as muscle relaxation at 200 mg/kg, ip after 15 mins; format: functional, organism-based
Mus musculus [15] = experiment: Anticonvulsant activity in Swiss albino mouse assessed as pentylenetetrazole induced convulsions frequency time at 100 mg/kg, ip administered for 20 mins followed by pentylenetetrazole challenge; format: functional
Mus musculus [16] = experiment: Hypnotic activity in mouse assessed as calmness at 200 mg/kg, ip after 20 mins; format: functional, organism-based
Mus musculus [17] = experiment: Protective index, ratio of TD50 for Swiss albino mouse assessed as motor performance to ED50 for protection against picrotoxin-induced seizure in ip dosed Swiss albino mouse; format: functional
Mus musculus [18] = experiment: Anticonvulsant activity in Swiss albino mouse assessed as protection against maximal electroshock-induced seizures at 200 mg/kg, ip administered for 30 mins followed by electric shock treatment; format: functional
Mus musculus [19] = experiment: Potency index, ratio of compound activity to sodium valproate activity against pentylenetetrazole-induced seizure in ip dosed Swiss albino mouse; format: functional
Mus musculus [20] = experiment: Protective index, ratio of TD50 for Swiss albino mouse assessed as motor performance to ED50 for protection against pentylenetetrazole-induced seizure in ip dosed Swiss albino mouse; format: functional
Mus musculus [21] = experiment: Hypnotic activity in mouse assessed as quietness at 200 mg/kg, ip after 20 mins; format: functional, organism-based
Mus musculus [22] = experiment: Hypnotic activity in mouse assessed as decrease in locomotors activity at 100 mg/kg, ip after 20 mins; format: functional, organism-based
Mus musculus [23] = experiment: Anticonvulsant activity in Swiss albino mouse assessed as protection against maximal electroshock-induced seizures at 100 mg/kg, ip administered for 30 mins followed by electric shock treatment; format: functional
Mus musculus [24] = experiment: Hypnotic activity in mouse assessed as loss of righting reflex and sleep at 100 mg/kg, ip after 2 mins; format: functional, organism-based
Mus musculus [25] = experiment: Hypnotic activity in mouse assessed as calmness at 100 mg/kg, ip after 20 mins; format: functional, organism-based
Mus musculus [26] = experiment: Anticonvulsant activity in Swiss albino mouse assessed as protection against pentylenetetrazole-induced seizure at 100 mg/kg, ip after 20 mins; format: functional
Mus musculus [27] = experiment: Hypnotic activity in mouse assessed as loss of righting reflex and sleep at 200 mg/kg, ip after 20 mins; format: functional, organism-based

Structure (SMILES) | Time (Mus musculus [1]) [min] | Time (Mus musculus [2]) [min] | Time (Mus musculus [3]) [min] | Time (Mus musculus [4]) [min] | Time (Mus musculus [5]) [min] | Time (Mus musculus [7]) [min] | Activity (Mus musculus [21]) | other results
CCOC(=O)C1=C(C)N2CC/C(=C\c3ccc(Br)cc3)C(=O)N=C2S1 | 6.1 | 7.3 | 8.1 | 4.1 | 11.6 | 8.4 | – | Activity (Mus musculus [6]): Active
CC1=C(Sc2ccccc2C(=O)O)SC2=NC(=O)CCCN21 | 7.3 | 1.5 | 7.8 | 2.8 | 12.3 | 3.8 | – | Activity (Mus musculus [6]): Active
CC1=CN2CC/C(=C\c3ccc(Br)cc3)C(=O)N=C2S1 | 6 | 1.2 | 8 | 2.1 | 14.3 | 2.6 | – | –
CCOC(=O)C1=C(C)N2CCCC(=O)N=C2S1 | – | – | – | – | – | – | – | selectivity ratio [8]: 5.28; Time (Mus musculus [9]): 6.3 min; Ratio TD50/ED50 (Mus musculus [10]): 2.22; Activity (Mus musculus [11]): 100%; Activity (Mus musculus [6]): Active; ED50 (Mus musculus [12]): 90 mg/kg; Time (Mus musculus [13]): 4.6 min; Activity (Mus musculus [14]): Active; Time (Mus musculus [15]): 2 min; Activity (Mus musculus [16]): Active; Ratio TD50/ED50 (Mus musculus [17]): 1.35; Activity (Mus musculus [18]): 100%; Ratio (Mus musculus [19]): 2; Ratio TD50/ED50 (Mus musculus [20]): 1.57
CC1=CSC2=NC(=O)CCCN12 | 6.7 | 1.5 | 13.9 | 3.1 | 18.5 | 4.1 | Active | –
CC1=CN2CCCC(=O)N=C2S1 | 8.7 | 4.1 | 7.1 | 3.1 | 10.1 | 5.2 | Active | –
COc1ccc(/C=C2\CCN3C=C(C)SC3=NC2=O)cc1 | 3 | 4.1 | 10.1 | 5.3 | 8.1 | 27.3 | – | Activity (Mus musculus [16]): Active
COc1ccc(/C=C2\CCN3C(C)=CSC3=NC2=O)cc1 | 9.5 | 2.3 | 11.3 | 1.9 | 20.7 | 5.1 | Active | –
CC1=C(Br)SC2=NC(=O)CCCN21 | 5 | – | 13.5 | – | 23.1 | – | – | Activity (Mus musculus [22]): Active; Activity (Mus musculus [23]): 100%; selectivity ratio [8]: 5.71; Activity (Mus musculus [24]): Active; Ratio TD50/ED50 (Mus musculus [10]): 2.17; ED50 (Mus musculus [12]): 78 mg/kg; Ratio TD50/ED50 (Mus musculus [17]): 1.31; Activity (Mus musculus [25]): Active; Activity (Mus musculus [26]): 100%; Ratio (Mus musculus [19]): 4; Ratio TD50/ED50 (Mus musculus [20]): 1.51; Activity (Mus musculus [27]): Active
CCOC(=O)C1=C(C)N2CC/C(=C\c3ccc(OC)cc3)C(=O)N=C2S1 | 11.1 | 2.2 | 9.1 | 2.3 | 18.3 | 3.7 | – | –
CC1=CSC2=NC(=O)/C(=C/c3ccc(Br)cc3)CCN12 | 2.5 | 2.1 | 12.5 | 2 | 19.5 | 3.6 | Active | –
